For 15 compounds, inhibition of growth results are on record in ChEMBL document CHEMBL1133348, “Quinonic derivatives active against a virulent strain of Toxoplasma gondii. Synthesis of 2-methylfuro[2,3-g]- and [3,2-g]isoquinolinetriones” (2000).

The subject of the experiment is THP-1. As to the kind of experiment: Percentage growth inhibition of Toxoplasma gondii at concentration of 2 ug/mL using an human myelomonocytic cell line THP-1. The class given is functional. To be noted: read-out: GI.
As for `O=C1C(O)=C([C@H]2CC[C@H](c3ccc(Cl)cc3)CC2)C(=O)c2ccccc21` [ATOVAQUONE], the inhibition of growth at 2 µg/mL stood at 95%.

Turning to `O=C1c2ccccc2C(=O)c2cc(O)ncc21`, the inhibition of growth at 2 µg/mL came out at 80%.

As for `CCc1nc(N)nc(N)c1-c1ccc(Cl)cc1` [PYRIMETHAMINE], the inhibition of growth at 2 µg/mL was found to be 94%.

Consider `Cc1cc2c(o1)C(=O)c1cnc(O)cc1C2=O`, for which the inhibition of growth at 2 µg/mL is 62%.

Consider `Cc1cc2c(o1)C(=O)C=C(Br)C2=O`, for which the inhibition of growth at 2 µg/mL stood at 83%.

Take `Cc1cc2c(o1)C(=O)c1cc(O)ncc1C2=O`: the inhibition of growth at 2 µg/mL came out at 92%.

Regarding `Cc1nc(O)cc2c1C(=O)c1cccc(O)c1C2=O`, the inhibition of growth at 2 µg/mL was 50%.

On to `O=C1C=C(Br)C(=O)c2ccccc21` [2-Bromo-1,4-naphthoquinone], for which the inhibition of growth at 2 µg/mL worked out at 66%.

In the case of `Cc1cnc2c(c1)C(=O)c1c(oc(C)c1C)C2=O`, the inhibition of growth at 2 µg/mL is 96.5%.

Turning to `Cc1c2c(cc(=O)n1C)C(=O)c1ccccc1C2=O`, the inhibition of growth at 2 µg/mL was 56%.

In the case of `CCOc1cnc2c(c1C)C(=O)c1oc(C)c(C)c1C2=O`, the inhibition of growth at 2 µg/mL was determined as 89.5%.

Consider `Nc1ccc(S(=O)(=O)Nc2ncccn2)cc1` [SULFADIAZINE], for which the inhibition of growth at 2 µg/mL came to 90%.

Take `CCC[C@@H]1C[C@@H](C(=O)N[C@@H]([C@H]2O[C@H](SC)[C@H](O)[C@@H](O)[C@H]2O)[C@H](C)Cl)N(C)C1` [CLINDAMYCIN]: the inhibition of growth at 2 µg/mL is 86%.

Consider `Cn1cc2c(cc1=O)C(=O)c1ccccc1C2=O`, for which the inhibition of growth at 2 µg/mL amounted to 52%.

As for `O=C1c2cc(O)ncc2C(=O)c2c(O)cccc21`, the inhibition of growth at 2 µg/mL was 54%.
